Experimental data from US20250230193A1, “CYCLIC COMPOUND HAVING SELECTIVE KRAS INHIBITORY EFFECT ON HRAS AND NRAS” (CHUGAI SEIYAKU KABUSHIKI KAISHA, priority 2022, published 2025).
*1 amine or outer side, *2 acyl side, *3 side chain or, on linkers, in order; H or OH if unused. Where a SMILES comes first, the peptide text is derived from it. Bridges are numbered along the chain shown (N, C = ends). [ ]: non-standard residue; d: D form. The star is where a group is joined. hPhe(3-Cl-4-CF3) = N[C@@H](CCc1ccc(C(F)(F)F)c(Cl)c1)C(=O)O; NPrPhe(4-CF3) = CCCN[C@@H](Cc1ccc(C(F)(F)F)cc1)C(=O)O; Pro(4-spirocPr) = O=C(O)[C@@H]1CC2(CC2)CN1; X38 = C[C@@H]1CN([*:1])[C@@H]1C(=O)[*:2]; Morpholine(3S-CO) = O=C(O)[C@@H]1COCCN1; Pip(4,4-F2) = O=C(O)[C@@H]1CC(F)(F)CCN1; NMeGly(cPent) = CN[C@H](C(=O)O)C1CCCC1; X46 = CC1(C)CN([*:1])[C@@H]1C(=O)[*:2]; Aze(3S-Me) = C[C@H]1CN[C@@H]1C(=O)O; Hyp = O=C(O)[C@@H]1C[C@@H](O)CN1; NMeD = CN[C@@H](CC(=O)O)C(=O)O; NMeL = CN[C@@H](CC(C)C)C(=O)O; X14 = N#CCN(CC(=O)[*:2])[*:1]; Pip = O=C(O)[C@@H]1CCCCN1; Morpholide = C1CN(*)CCO1; Ac5c = NC1(C(=O)O)CCCC1; Aze = O=C(O)[C@@H]1CCN1; NEtG = CCNCC(=O)O; Sar = CNCC(=O)O

What was measured:
[1] = target: GDP-bound NRAS wild-type protein (Homo sapiens, UniProt P01111); assay: Binding to NRAS by surface plasmon resonance (SPR), Single Cycle Kinetics; details: KD ratio NRAS/KRAS, SPR
Sequence of GDP-bound NRAS wild-type protein (P01111 whole entry): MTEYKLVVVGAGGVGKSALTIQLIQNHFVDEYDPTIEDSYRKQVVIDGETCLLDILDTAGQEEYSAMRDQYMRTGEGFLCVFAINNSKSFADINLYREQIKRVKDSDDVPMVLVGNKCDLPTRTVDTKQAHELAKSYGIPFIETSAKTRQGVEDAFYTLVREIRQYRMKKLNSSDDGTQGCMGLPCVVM

[2] = target: GDP-bound HRAS wild-type protein (Homo sapiens, UniProt P01112); assay: Binding to HRAS by surface plasmon resonance (SPR), Single Cycle Kinetics; details: KD ratio HRAS/KRAS, SPR
Sequence of GDP-bound HRAS wild-type protein (P01112 whole entry): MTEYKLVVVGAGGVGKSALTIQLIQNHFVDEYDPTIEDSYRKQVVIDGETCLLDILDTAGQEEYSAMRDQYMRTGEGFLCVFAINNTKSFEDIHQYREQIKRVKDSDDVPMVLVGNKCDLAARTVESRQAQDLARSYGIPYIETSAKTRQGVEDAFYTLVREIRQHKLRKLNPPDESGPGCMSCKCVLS

CCCN1C(=O)CN(C)C(=O)CN(CC#N)C(=O)[C@H]([C@@H](C)CC)NC(=O)[C@H](CC(C)C)N(C)C(=O)C[C@@H](C(=O)N2CCOCC2)N(C)C(=O)[C@H](C2CCCC2)N(C)C(=O)C2(CCCC2)NC(=O)[C@@H]2CCCN2C(=O)[C@H](CCc2ccc(C(F)(F)F)c(Cl)c2)NC(=O)CN(C)C(=O)[C@@H]1Cc1ccc(C(F)(F)F)cc1 [PP0254] ([NMeL]I[X14][Sar][NPrPhe(4-CF3)][Sar][hPhe(3-Cl-4-CF3)]P[Ac5c][NMeGly(cPent)][NMeD]-Morpholide; lactam N-11)
NRAS/KRAS (ratio of KD for GDP-bound NRAS wild-type to KD for KRAS) [1]: B (a compound having 3 or more and less than 10 is denoted as B) | HRAS/KRAS (ratio of KD for GDP-bound HRAS wild-type to KD for KRAS) [2]: C (A compound having a KD ratio of 0.1 or more and less than 3 is denoted as C)

CCCN1C(=O)CN(C)C(=O)[C@H]2N(CC2(C)C)C(=O)[C@H]([C@@H](C)CC)NC(=O)[C@H](CC(C)C)N(C)C(=O)C[C@@H](C(=O)N2CCOCC2)N(C)C(=O)[C@H](C2CCCC2)N(C)C(=O)C2(CCCC2)NC(=O)[C@@H]2CCCN2C(=O)[C@H](CCc2ccc(C(F)(F)F)c(Cl)c2)NC(=O)CN(C)C(=O)[C@@H]1Cc1ccc(C(F)(F)F)cc1 [PP0256] ([NMeL]I[X46][Sar][NPrPhe(4-CF3)][Sar][hPhe(3-Cl-4-CF3)]P[Ac5c][NMeGly(cPent)][NMeD]-Morpholide; lactam N-11)
NRAS/KRAS (ratio of KD for GDP-bound NRAS wild-type to KD for KRAS) [1]: B (a compound having 3 or more and less than 10 is denoted as B) | HRAS/KRAS (ratio of KD for GDP-bound HRAS wild-type to KD for KRAS) [2]: C (A compound having a KD ratio of 0.1 or more and less than 3 is denoted as C)

CCCN1C(=O)CN(C)C(=O)[C@@H]2[C@H](C)CN2C(=O)[C@H]([C@@H](C)CC)NC(=O)[C@H](CC(C)C)N(C)C(=O)C[C@@H](C(=O)N2CCOCC2)N(C)C(=O)[C@H](C2CCCC2)N(C)C(=O)C2(CCCC2)NC(=O)[C@@H]2CCCN2C(=O)[C@H](CCc2ccc(C(F)(F)F)c(Cl)c2)NC(=O)CN(C)C(=O)[C@@H]1Cc1ccc(C(F)(F)F)cc1 [PP0257] ([NMeL]I[X38][Sar][NPrPhe(4-CF3)][Sar][hPhe(3-Cl-4-CF3)]P[Ac5c][NMeGly(cPent)][NMeD]-Morpholide; lactam N-11)
NRAS/KRAS (ratio of KD for GDP-bound NRAS wild-type to KD for KRAS) [1]: B (a compound having 3 or more and less than 10 is denoted as B) | HRAS/KRAS (ratio of KD for GDP-bound HRAS wild-type to KD for KRAS) [2]: B (a compound having 3 or more and less than 10 is denoted as B)

CCCN1C(=O)CN(C)C(=O)[C@@H]2[C@@H](C)CN2C(=O)[C@H]([C@@H](C)CC)NC(=O)[C@H](CC(C)C)N(C)C(=O)C[C@@H](C(=O)N2CCOCC2)N(C)C(=O)[C@H](C2CCCC2)N(C)C(=O)C2(CCCC2)NC(=O)[C@@H]2CCCN2C(=O)[C@H](CCc2ccc(C(F)(F)F)c(Cl)c2)NC(=O)CN(C)C(=O)[C@@H]1Cc1ccc(C(F)(F)F)cc1 [PP0258] ([NMeL]I[Aze(3S-Me)][Sar][NPrPhe(4-CF3)][Sar][hPhe(3-Cl-4-CF3)]P[Ac5c][NMeGly(cPent)][NMeD]-Morpholide; lactam N-11)
NRAS/KRAS (ratio of KD for GDP-bound NRAS wild-type to KD for KRAS) [1]: B (a compound having 3 or more and less than 10 is denoted as B) | HRAS/KRAS (ratio of KD for GDP-bound HRAS wild-type to KD for KRAS) [2]: C (A compound having a KD ratio of 0.1 or more and less than 3 is denoted as C)

CCCN1C(=O)[C@@H]2CCN2C(=O)CN(CC)C(=O)[C@H]([C@@H](C)CC)NC(=O)[C@H](CC(C)C)N(C)C(=O)C[C@@H](C(=O)N2CCOCC2)N(C)C(=O)[C@H](C2CCCC2)N(C)C(=O)C2(CCCC2)NC(=O)[C@@H]2CCCN2C(=O)[C@H](CCc2ccc(C(F)(F)F)c(Cl)c2)NC(=O)CN(C)C(=O)[C@@H]1Cc1ccc(C(F)(F)F)cc1 [PP0259] ([NMeL]I[NEtG][Aze][NPrPhe(4-CF3)][Sar][hPhe(3-Cl-4-CF3)]P[Ac5c][NMeGly(cPent)][NMeD]-Morpholide; lactam N-11)
NRAS/KRAS (ratio of KD for GDP-bound NRAS wild-type to KD for KRAS) [1]: C (A compound having a KD ratio of 0.1 or more and less than 3 is denoted as C) | HRAS/KRAS (ratio of KD for GDP-bound HRAS wild-type to KD for KRAS) [2]: B (a compound having 3 or more and less than 10 is denoted as B)

CCCN1C(=O)CN(C)C(=O)CN(C)C(=O)[C@H]([C@@H](C)CC)NC(=O)[C@H](CC(C)C)N(C)C(=O)C[C@@H](C(=O)N2CCOCC2)N(C)C(=O)[C@H](C2CCCC2)N(C)C(=O)C2(CCCC2)NC(=O)[C@@H]2CCN2C(=O)[C@H](CCc2ccc(C(F)(F)F)c(Cl)c2)NC(=O)CN(C)C(=O)[C@@H]1Cc1ccc(C(F)(F)F)cc1 [PP0260] ([NMeL]I[Sar][Sar][NPrPhe(4-CF3)][Sar][hPhe(3-Cl-4-CF3)][Aze][Ac5c][NMeGly(cPent)][NMeD]-Morpholide; lactam N-11)
NRAS/KRAS (ratio of KD for GDP-bound NRAS wild-type to KD for KRAS) [1]: B (a compound having 3 or more and less than 10 is denoted as B) | HRAS/KRAS (ratio of KD for GDP-bound HRAS wild-type to KD for KRAS) [2]: C (A compound having a KD ratio of 0.1 or more and less than 3 is denoted as C)

CCCN1C(=O)CN(C)C(=O)CN(C)C(=O)[C@H]([C@@H](C)CC)NC(=O)[C@H](CC(C)C)N(C)C(=O)C[C@@H](C(=O)N2CCOCC2)N(C)C(=O)[C@H](C2CCCC2)N(C)C(=O)C2(CCCC2)NC(=O)[C@@H]2CC3(CC3)CN2C(=O)[C@H](CCc2ccc(C(F)(F)F)c(Cl)c2)NC(=O)CN(C)C(=O)[C@@H]1Cc1ccc(C(F)(F)F)cc1 [PP0261] ([NMeL]I[Sar][Sar][NPrPhe(4-CF3)][Sar][hPhe(3-Cl-4-CF3)][Pro(4-spirocPr)][Ac5c][NMeGly(cPent)][NMeD]-Morpholide; lactam N-11)
NRAS/KRAS (ratio of KD for GDP-bound NRAS wild-type to KD for KRAS) [1]: B (a compound having 3 or more and less than 10 is denoted as B) | HRAS/KRAS (ratio of KD for GDP-bound HRAS wild-type to KD for KRAS) [2]: C (A compound having a KD ratio of 0.1 or more and less than 3 is denoted as C)

CCCN1C(=O)CN(C)C(=O)CN(C)C(=O)[C@H]([C@@H](C)CC)NC(=O)[C@H](CC(C)C)N(C)C(=O)C[C@@H](C(=O)N2CCOCC2)N(C)C(=O)[C@H](C2CCCC2)N(C)C(=O)C2(CCCC2)NC(=O)[C@@H]2C[C@@H](OC)CN2C(=O)[C@H](CCc2ccc(C(F)(F)F)c(Cl)c2)NC(=O)CN(C)C(=O)[C@@H]1Cc1ccc(C(F)(F)F)cc1 [PP0262] ([NMeL]I[Sar][Sar][NPrPhe(4-CF3)][Sar][hPhe(3-Cl-4-CF3)][Hyp](Me)[Ac5c][NMeGly(cPent)][NMeD]-Morpholide; lactam N-11)
NRAS/KRAS (ratio of KD for GDP-bound NRAS wild-type to KD for KRAS) [1]: B (a compound having 3 or more and less than 10 is denoted as B) | HRAS/KRAS (ratio of KD for GDP-bound HRAS wild-type to KD for KRAS) [2]: B (a compound having 3 or more and less than 10 is denoted as B)

CCCN1C(=O)CN(C)C(=O)CN(C)C(=O)[C@H]([C@@H](C)CC)NC(=O)[C@H](CC(C)C)N(C)C(=O)C[C@@H](C(=O)N2CCOCC2)N(C)C(=O)[C@H](C2CCCC2)N(C)C(=O)C2(CCCC2)NC(=O)[C@@H]2CCCCN2C(=O)[C@H](CCc2ccc(C(F)(F)F)c(Cl)c2)NC(=O)CN(C)C(=O)[C@@H]1Cc1ccc(C(F)(F)F)cc1 [PP0263] ([NMeL]I[Sar][Sar][NPrPhe(4-CF3)][Sar][hPhe(3-Cl-4-CF3)][Pip][Ac5c][NMeGly(cPent)][NMeD]-Morpholide; lactam N-11)
NRAS/KRAS (ratio of KD for GDP-bound NRAS wild-type to KD for KRAS) [1]: B (a compound having 3 or more and less than 10 is denoted as B) | HRAS/KRAS (ratio of KD for GDP-bound HRAS wild-type to KD for KRAS) [2]: C (A compound having a KD ratio of 0.1 or more and less than 3 is denoted as C)

CCCN1C(=O)CN(C)C(=O)CN(C)C(=O)[C@H]([C@@H](C)CC)NC(=O)[C@H](CC(C)C)N(C)C(=O)C[C@@H](C(=O)N2CCOCC2)N(C)C(=O)[C@H](C2CCCC2)N(C)C(=O)C2(CCCC2)NC(=O)[C@@H]2CC(F)(F)CCN2C(=O)[C@H](CCc2ccc(C(F)(F)F)c(Cl)c2)NC(=O)CN(C)C(=O)[C@@H]1Cc1ccc(C(F)(F)F)cc1 [PP0264] ([NMeL]I[Sar][Sar][NPrPhe(4-CF3)][Sar][hPhe(3-Cl-4-CF3)][Pip(4,4-F2)][Ac5c][NMeGly(cPent)][NMeD]-Morpholide; lactam N-11)
NRAS/KRAS (ratio of KD for GDP-bound NRAS wild-type to KD for KRAS) [1]: B (a compound having 3 or more and less than 10 is denoted as B) | HRAS/KRAS (ratio of KD for GDP-bound HRAS wild-type to KD for KRAS) [2]: C (A compound having a KD ratio of 0.1 or more and less than 3 is denoted as C)

CCCN1C(=O)CN(C)C(=O)CN(C)C(=O)[C@H]([C@@H](C)CC)NC(=O)[C@H](CC(C)C)N(C)C(=O)C[C@@H](C(=O)N2CCOCC2)N(C)C(=O)[C@H](C2CCCC2)N(C)C(=O)C2(CCCC2)NC(=O)[C@@H]2COCCN2C(=O)[C@H](CCc2ccc(C(F)(F)F)c(Cl)c2)NC(=O)CN(C)C(=O)[C@@H]1Cc1ccc(C(F)(F)F)cc1 [PP0265] ([NMeL]I[Sar][Sar][NPrPhe(4-CF3)][Sar][hPhe(3-Cl-4-CF3)][Morpholine(3S-CO)][Ac5c][NMeGly(cPent)][NMeD]-Morpholide; lactam N-11)
NRAS/KRAS (ratio of KD for GDP-bound NRAS wild-type to KD for KRAS) [1]: B (a compound having 3 or more and less than 10 is denoted as B) | HRAS/KRAS (ratio of KD for GDP-bound HRAS wild-type to KD for KRAS) [2]: C (A compound having a KD ratio of 0.1 or more and less than 3 is denoted as C)

CCCN1C(=O)CN(C)C(=O)CN(C)C(=O)[C@H]([C@@H](C)CC)NC(=O)[C@H](CC(C)C)N(C)C(=O)C[C@@H](C(=O)N2CCOCC2)N(C)C(=O)[C@H](C2CCCC2)N(C)C(=O)C2(CCCC2)NC(=O)CN(C)C(=O)[C@H](CCc2ccc(C(F)(F)F)c(Cl)c2)NC(=O)CN(C)C(=O)[C@@H]1Cc1ccc(C(F)(F)F)cc1 [PP0266] ([NMeL]I[Sar][Sar][NPrPhe(4-CF3)][Sar][hPhe(3-Cl-4-CF3)][Sar][Ac5c][NMeGly(cPent)][NMeD]-Morpholide; lactam N-11)
NRAS/KRAS (ratio of KD for GDP-bound NRAS wild-type to KD for KRAS) [1]: B (a compound having 3 or more and less than 10 is denoted as B) | HRAS/KRAS (ratio of KD for GDP-bound HRAS wild-type to KD for KRAS) [2]: C (A compound having a KD ratio of 0.1 or more and less than 3 is denoted as C)
